In PubChem BioAssay (NCI):
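96-well plates; 48 h exposure; 5 concentrations. Endpoints by linear interpolation between flanking doses. Not reached: highest tested concentration assigned. TGI is the concentration that stops growth completely.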

Tests used:
Assay in all cases: NCI anticancer screen, dose series, 48 h
[1] = system: 786-0 renal
[2] = system: A498 renal
[3] = system: A549 NSCLC
[4] = system: ACHN renal
[5] = system: BT-549 breast
[6] = system: CAKI-1 renal
[7] = system: CCRF-CEM leukemia
[8] = system: COLO 205 colon
[9] = system: DLD-1 colon
[10] = system: DMS 114 small cell lung
[11] = system: DMS 273 small cell lung
[12] = system: DU-145 prostate
[13] = system: EKVX NSCLC
[14] = system: HCC-2998 colon
[15] = system: HCT-116 colon
[16] = system: HCT-15 colon
[17] = system: HL-60(TB) leukemia
[18] = system: HOP-18 NSCLC
[19] = system: HOP-62 NSCLC
[20] = system: HOP-92 NSCLC
[21] = system: HS 578T breast
[22] = system: HT29 colon
[23] = system: IGROV1 ovarian
[24] = system: K-562 leukemia
[25] = system: KM12 colon
[26] = system: LOX IMVI melanoma
[27] = system: LXFL 529 NSCLC
[28] = system: M14 melanoma
[29] = system: M19-MEL melanoma
[30] = system: MALME-3M melanoma
[31] = system: MCF7 breast
[32] = system: MDA-MB-231 breast
[33] = system: MDA-MB-435
[34] = system: MOLT-4 leukemia
[35] = system: NCI-H226 lung
[36] = system: NCI-H23 lung
[37] = system: NCI-H460 lung
[38] = system: NCI-H522 lung
[39] = system: OVCAR-3 ovarian
[40] = system: OVCAR-4 ovarian
[41] = system: OVCAR-5 ovarian
[42] = system: OVCAR-8 ovarian
[43] = system: PC-3 prostate
[44] = system: RPMI-8226 leukemia
[45] = system: RXF 393 renal
[46] = system: SF-268 CNS
[47] = system: SF-295 CNS
[48] = system: SF-539 CNS
[49] = system: SK-MEL-2 melanoma
[50] = system: SK-MEL-28 melanoma
[51] = system: SK-MEL-5 melanoma
[52] = system: SK-OV-3 ovarian
[53] = system: SN12C renal
[54] = system: SNB-19 CNS
[55] = system: SNB-75 CNS
[56] = system: SNB-78 CNS
[57] = system: SR leukemia
[58] = system: SW-620 colon
[59] = system: T-47D breast
[60] = system: TK-10 renal
[61] = system: U251 CNS
[62] = system: UACC-257 melanoma
[63] = system: UACC-62 melanoma
[64] = system: UO-31 renal
[65] = system: XF 498 CNS
[66] = system: KM20L2 colon
[67] = system: RXF-631 renal

C=C(C)[C@H]1Cc2c(ccc3c2O[C@@H]2COc4cc(OC)c(OC)cc4[C@@H]2C3=O)O1
TGI [1]: > 86.2 µM
TGI [2]: 63.3 µM
TGI [3]: > 100 µM
TGI [4]: 87 µM
TGI [5]: 9.23 µM
TGI [6]: 63.8 µM
TGI [7]: 71.1 µM
TGI [8]: 0.539 µM
TGI [9]: > 100 µM
TGI [10]: 0.145 µM
TGI [11]: 18.3 µM
TGI [12]: 38.9 µM
TGI [13]: > 88.4 µM
TGI [14]: 8.12 µM
TGI [15]: 23.5 µM
TGI [16]: 40.4 µM
TGI [17]: 0.381 µM
TGI [18]: > 89.7 µM
TGI [19]: 40.5 µM
TGI [20]: 18.1 µM
TGI [21]: 0.488 µM
TGI [22]: 4.09 µM
TGI [23]: > 100 µM
TGI [24]: > 72.1 µM
TGI [25]: 14.3 µM
TGI [26]: 8.04 µM
TGI [27]: 7.87 µM
TGI [28]: 24.7 µM
TGI [29]: > 73 µM
TGI [30]: 48 µM
TGI [31]: > 84.2 µM
TGI [32]: 44.7 µM
TGI [33]: 0.0642 µM
TGI [34]: 45.2 µM
TGI [35]: 31.3 µM
TGI [36]: 14.1 µM
TGI [37]: 15.8 µM
TGI [38]: 0.404 µM
TGI [39]: 3.05 µM
TGI [40]: 68.5 µM
TGI [41]: > 100 µM
TGI [42]: 10.1 µM
TGI [43]: 47.5 µM
TGI [44]: 8.84 µM
TGI [45]: 6.41 µM
TGI [46]: 28.2 µM
TGI [47]: 38 µM
TGI [48]: 3.36 µM
TGI [49]: 25.3 µM
TGI [50]: 81.4 µM
TGI [51]: 3.04 µM
TGI [52]: 48.8 µM
TGI [53]: 67.5 µM
TGI [54]: > 100 µM
TGI [55]: 60.5 µM
TGI [56]: 45.3 µM
TGI [57]: 22.2 µM
TGI [58]: 82.8 µM
TGI [59]: > 97.1 µM
TGI [60]: 54.5 µM
TGI [61]: 30.9 µM
TGI [62]: 36.7 µM
TGI [63]: 44.7 µM
TGI [64]: 58.8 µM
TGI [65]: 0.302 µM

CCOC(=O)C1SC(=Nc2ccc(C)c(C)c2)N=C1C (stereo not given)
TGI [1]: > 100 µM
TGI [2]: > 100 µM
TGI [3]: > 100 µM
TGI [4]: > 100 µM
TGI [6]: > 100 µM
TGI [7]: > 100 µM
TGI [8]: > 100 µM
TGI [9]: > 100 µM
TGI [10]: > 100 µM
TGI [11]: > 100 µM
TGI [13]: > 100 µM
TGI [14]: > 100 µM
TGI [16]: > 100 µM
TGI [17]: > 100 µM
TGI [18]: > 100 µM
TGI [19]: > 100 µM
TGI [20]: > 100 µM
TGI [22]: > 100 µM
TGI [23]: > 100 µM
TGI [24]: > 100 µM
TGI [25]: > 100 µM
TGI [66]: > 100 µM
TGI [26]: > 100 µM
TGI [27]: > 100 µM
TGI [28]: > 100 µM
TGI [29]: > 100 µM
TGI [30]: > 100 µM
TGI [34]: > 100 µM
TGI [35]: > 100 µM
TGI [36]: > 100 µM
TGI [37]: > 100 µM
TGI [38]: > 100 µM
TGI [39]: > 100 µM
TGI [40]: > 100 µM
TGI [41]: > 100 µM
TGI [42]: > 100 µM
TGI [44]: > 100 µM
TGI [46]: > 100 µM
TGI [47]: > 100 µM
TGI [48]: > 100 µM
TGI [49]: > 100 µM
TGI [50]: > 100 µM
TGI [51]: > 100 µM
TGI [52]: > 100 µM
TGI [53]: > 100 µM
TGI [54]: > 100 µM
TGI [55]: > 100 µM
TGI [57]: > 100 µM
TGI [58]: > 100 µM
TGI [60]: > 100 µM
TGI [61]: > 100 µM
TGI [62]: > 100 µM
TGI [63]: > 100 µM
TGI [64]: > 100 µM
TGI [65]: > 100 µM

CCCCCCc1cc(C(=O)Nc2ccc(Cl)cc2)nc(=S)[nH]1
TGI [2]: > 1 µM
TGI [3]: > 100 µM
TGI [6]: > 100 µM
TGI [7]: > 100 µM
TGI [13]: > 100 µM
TGI [16]: > 1 µM
TGI [17]: > 100 µM
TGI [19]: > 100 µM
TGI [20]: > 100 µM
TGI [23]: > 100 µM
TGI [24]: > 100 µM
TGI [25]: > 100 µM
TGI [66]: > 1 µM
TGI [27]: > 100 µM
TGI [28]: > 100 µM
TGI [34]: > 100 µM
TGI [36]: > 100 µM
TGI [38]: > 100 µM
TGI [39]: > 1 µM
TGI [40]: > 100 µM
TGI [41]: 85.8 µM
TGI [44]: > 100 µM
TGI [67]: > 100 µM
TGI [48]: > 100 µM
TGI [49]: > 100 µM
TGI [51]: > 100 µM
TGI [52]: > 100 µM
TGI [53]: > 100 µM
TGI [54]: > 1 µM
TGI [57]: > 100 µM
TGI [58]: > 100 µM
TGI [61]: > 100 µM
TGI [62]: > 100 µM
TGI [64]: > 100 µM

O=C(N/N=C/c1cc(Br)ccc1O)N/N=C/c1cc(Br)ccc1O
TGI [1]: > 100 µM
TGI [2]: > 100 µM
TGI [3]: > 100 µM
TGI [4]: > 100 µM
TGI [6]: > 100 µM
TGI [7]: > 100 µM
TGI [8]: > 100 µM
TGI [9]: > 100 µM
TGI [10]: > 100 µM
TGI [11]: > 100 µM
TGI [13]: > 100 µM
TGI [17]: > 100 µM
TGI [19]: > 100 µM
TGI [20]: 6.05 µM
TGI [22]: > 100 µM
TGI [24]: > 100 µM
TGI [25]: > 100 µM
TGI [66]: > 100 µM
TGI [26]: > 100 µM
TGI [29]: > 100 µM
TGI [30]: > 100 µM
TGI [34]: > 100 µM
TGI [35]: 9.64 µM
TGI [36]: > 100 µM
TGI [37]: > 100 µM
TGI [38]: > 100 µM
TGI [40]: > 100 µM
TGI [41]: > 100 µM
TGI [42]: 21.1 µM
TGI [45]: > 100 µM
TGI [67]: > 100 µM
TGI [46]: > 100 µM
TGI [47]: > 100 µM
TGI [48]: > 100 µM
TGI [50]: > 100 µM
TGI [51]: > 100 µM
TGI [52]: > 100 µM
TGI [53]: > 100 µM
TGI [54]: > 100 µM
TGI [57]: > 100 µM
TGI [58]: > 100 µM
TGI [60]: > 100 µM
TGI [61]: > 100 µM
TGI [62]: > 100 µM
TGI [64]: > 100 µM
TGI [65]: > 100 µM
